Experimental data from patent US9144239B2, “Macrocyclic picolinamides as fungicides” (DOW AGROSCIENCES LLC, priority 2012, dated 2015).
Where two headings read alike, the source gives them in different places.

Key:
Assay type in all cases: in vivo
[1] = test system: Puccinia triticina; synonym: Puccinia recondita f. sp. tritici; assay: Fungicidal activity: wheat brown rust (PUCCRT), wheat seedlings; details: 100 ppm, wheat
In short: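 Wheat (Yuma) seedlings at first-leaf stage, inoculated with Puccinia triticina spores before or after treatment, held overnight in dark dew room at 22° C, 100% RH, then greenhouse at 24° C. Acetone solutions diluted with nine volumes water containing 110 ppm Triton X-100, sprayed to run-off. Percent disease control derived from severity (0–100%) relative to untreated plants.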

[2] = test system: Mycosphaerella graminicola; anamorph: Septoria tritici; assay: Fungicidal activity: leaf blotch of wheat (SEPTTR), wheat seedlings; details: Zymoseptoria tritici, 100 ppm, wheat
In short: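 Compounds in acetone were diluted with nine volumes of water containing 110 ppm Triton X-100 and sprayed to run-off on Yuma wheat seedlings at first-leaf stage. Septoria tritici spores were inoculated before or after treatment, followed by dew chambers at 100% RH and 20 °C, then greenhouse at 20 °C. Severity (0–100%) was scored once untreated plants were fully diseased; control was calculated relative to untreated plants.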

[3] = test system: Glomerella lagenarium; anamorph: Colletotrichum lagenarium; assay: Fungicidal activity: cucumber anthracnose (COLLLA); details: Colletotrichum orbiculare, 24 h, 1 Day Protectant, read-out: Disease Control COLLLA 1DP
Protocol: Technical grades of materials were dissolved in acetone, which were then mixed with nine volumes of water containing 110 ppm Triton X-100. The fungicide solutions were applied onto wheat seedlings using an automated booth sprayer to run-off. All sprayed plants were allowed to air dry prior to further handling. Wheat plants (variety Yuma) were grown from seed in a greenhouse in 50% mineral soil/50% soil-less Metro mix until the first leaf was fully emerged, with 7-10 seedlings per pot. These plants were inoculated with an aqueous spore suspension of Septoria tritici either prior to or after fungicide treatments. After inoculation the plants were kept in 100% relative humidity (one day in a dark dew chamber followed by two to three days in a lighted dew chamber at 20° C.) to permit spores to germinate and infect the leaf. The plants were then transferred to a greenhouse set at 20° C. for disease to develop. When disease symptoms were fully expressed on the 1st leaves of untreated plants, infection levels were assessed on a scale of 0 to 100 percent disease severity. Percent disease control was calculated using the ratio of disease severity on treated plants relative to untreated plants. Evaluation of Fungicidal Activity: Cucumber Anthracnose (Glomerella lagenarium; Anamorph: Colletotrichum lagenarium; Bayer Code COLLLA) Cucumber seedlings (variety Bush Pickle) were propagated in soil-less Metro mix, with each pot having one plant, and used in the test when 12 to 14 days old. Test plants were inoculated with an aqueous spore suspension of Colletotrichum lagenarium 24 hr after fungicide treatments. After inoculation the plants were kept in a dew room at 22° C. with 100% relative humidity for 48 hr to permit spores to germinate and infect the leaf. The plants were then transferred to a growth room set at 22° C. for disease to develop. Fungicide formulation, application and disease assessment on the sprayed leaves followed the procedures as described in the Example A.

[4] = test system: Magnaporthe grisea; anamorph: Pyricularia oryzae; assay: whole plant or invertebrate; details: 24 h, read-out: Disease Control PYRIOR 1 DP
[5] = test system: Blumeria graminis f.sp. tritici; synonym: Erysiphe graminis f.sp. tritici; assay: Fungicidal activity: wheat powdery mildew (ERYSGT); details: 24 h, 1 Day Protectant, read-out: Disease Control ERYSGT 1 DP
Protocol: Technical grades of materials were dissolved in acetone, which were then mixed with nine volumes of water containing 110 ppm Triton X-100. The fungicide solutions were applied onto wheat seedlings using an automated booth sprayer to run-off. All sprayed plants were allowed to air dry prior to further handling. Wheat plants (variety Yuma) were grown from seed in a greenhouse in 50% mineral soil/50% soil-less Metro mix until the first leaf was fully emerged, with 7-10 seedlings per pot. These plants were inoculated with an aqueous spore suspension of Septoria tritici either prior to or after fungicide treatments. After inoculation the plants were kept in 100% relative humidity (one day in a dark dew chamber followed by two to three days in a lighted dew chamber at 20° C.) to permit spores to germinate and infect the leaf. The plants were then transferred to a greenhouse set at 20° C. for disease to develop. When disease symptoms were fully expressed on the 1st leaves of untreated plants, infection levels were assessed on a scale of 0 to 100 percent disease severity. Percent disease control was calculated using the ratio of disease severity on treated plants relative to untreated plants. Evaluation of Fungicidal Activity: Wheat Powdery Mildew (Blumeria graminis f.sp. tritici; Synonym: Erysiphe graminis f.sp. tritici; Bayer Code […]) Wheat plants (variety Yuma) were grown from seed in a greenhouse in 50% mineral soil/50% soil-less Metro mix until the first leaf was fully emerged, with 7-10 seedlings per pot. These plants were inoculated by dusting with infected stock plants 24 hr after fungicide treatments. After inoculation the plants were kept in a greenhouse set at 20° C. for disease to develop. Fungicide formulation, application and disease assessment on the sprayed leaves followed the procedures as described in the Example A.

[6] = 24 h, 1 Day Protectant, read-out: Disease Control PUCCRT 1DP
[7] = 72 h, 3 Day Curative, read-out: Disease Control PUCCRT 3DC
[8] = 24 h, 1 Day Protectant, read-out: Disease Control SEPTTR 1DP
[9] = 72 h, 3 Day Curative, read-out: Disease Control SEPTTR 3DC

SMILES | pest or weed control at 100 ppm [1, 6] | pest or weed control at 100 ppm [1, 7] | pest or weed control at 100 ppm [2, 8] | pest or weed control at 100 ppm [2, 9] | pest or weed control at 100 ppm [3] | pest or weed control at 100 ppm [4] | pest or weed control at 100 ppm [5]
COc1ccnc(C(=O)N[C@H]2COC[C@H](OCC(C)C)[C@@H](OCC(C)C)[C@H](C)OC2=O)c1OCOC(=O)C(C)C [Compound 2] | 80 to 100% | 80 to 100% | 80 to 100% | 80 to 100% |  |  | 
CCCO[C@H]1COC[C@H](NC(=O)c2nccc(OC)c2OCOC(C)=O)C(=O)O[C@@H](C)[C@@H]1Oc1ccccc1 [Compound 221] | 80 to 100% | 80 to 100% | 80 to 100% | 80 to 100% | 80 to 100% | 80 to 100% | 
COc1ccnc(C(=O)N[C@H]2COC[C@H](OCC(C)C)[C@@H](Oc3ccccc3)[C@H](C)OC2=O)c1OCOC(C)=O [Compound 85] | 80 to 100% | 80 to 100% | 80 to 100% | 80 to 100% | 80 to 100% | 80 to 100% | 0 to 80%
COc1ccnc(C(=O)NC2COC[C@H](OCc3ccccc3)[C@@H](OCc3ccccc3)[C@H](C)OC2=O)c1OCOC(C)=O (stereo partly shown) [Compound 12] | 80 to 100% | 80 to 100% | 80 to 100% | 80 to 100% | 80 to 100% | 80 to 100% | 0 to 80%
CCCO[C@H]1[C@H](C)OC(=O)[C@@H](NC(=O)c2nccc(OC)c2OCOC(C)=O)COC[C@@H]1Oc1ccccc1 [Compound 222] | 80 to 100% | 80 to 100% | 80 to 100% | 80 to 100% | 80 to 100% | 80 to 100% | 
COc1ccnc(C(=O)N[C@H]2COC[C@H](OCCCC(F)(F)F)[C@@H](OCCCC(F)(F)F)[C@H](C)OC2=O)c1OCOC(C)=O [Compound 68] | 80 to 100% | 80 to 100% | 80 to 100% | 80 to 100% | 80 to 100% | 80 to 100% | 0 to 80%
COc1ccnc(C(=O)N[C@H]2COC[C@H](OC(=O)C(C)C)[C@@H](OC(=O)C(C)C)[C@H](C)OC2=O)c1OCOC(C)=O [Compound 57] | 80 to 100% | 80 to 100% | 80 to 100% | 80 to 100% | 80 to 100% | 80 to 100% | 0 to 80%
COc1ccnc(C(=O)N[C@H]2COC[C@H](OCC(C)C)[C@@H](OCC(C)C)[C@H](C)OC2=O)c1OCOC(C)=O [Compound 3, (2-((3S,7S,8S,9S)-7,8-diisobutoxy-9-methyl-2-oxo-1,5-dioxonan-3-ylcarbamoyl)-4-methoxypyridin-3-yloxy)methyl] | 80 to 100% | 80 to 100% | 80 to 100% | 80 to 100% | 80 to 100% | 80 to 100% | 80 to 100%
CCCCO[C@H]1COC[C@H](NC(=O)c2nccc(OC)c2OCOC(C)=O)C(=O)O[C@@H](C)[C@@H]1OCC(F)F [Compound 55] | 80 to 100% | 80 to 100% | 80 to 100% | 80 to 100% | 80 to 100% | 80 to 100% | 0 to 80%
